According to patent US20250195530A1, “POLQ INHIBITORS” (ASTRAZENECA AB, priority 2022, published 2025):
Read-outs that look alike come from different tables or passages of the source.

Assays:
DLD-1 cells = test: Inhibition of proliferation, DLD-1 BRCA2 wt control (Cell Titre Glo 3D); type: cell-based; settings: for IC50: Homo sapiens
Text: This assay identifies anti-proliferative effects of POLQ compounds in the homologous recombination deficient colorectal cell line DLD-1 BRCA2−/− over 8-9 population doublings (7 days for DLD-1 and 12 days for DLD-1 BRCA2−/−). DLD1 BRCA2 wt are used as a control to detect cell toxic effects not specific to homologous recombination deficiency.
DLD-1 BRCA2−/− and DLD-1 cells were kept in continuous culture in Assay Medium (RPMI 1640 phenol red free (Sigma R7509) containing 1% GlutaMAX (Gibco 35050) and 10% Foetal Bovine Serum (Gibco 10270-106)). On the day of the assay cells in culture of ˜80-90% confluent were used. Cell monolayers were washed with 10 mL PBS, then removed and added 2 mL TrypLE Express (Gibco 12604). The cells with TrypLE Express were incubated for 5 minutes in cell culture incubator and then the detached cells resuspend in 15 mL Assay Medium. Cells were counted using a ViCell and the cell images were monitored for clumps of cells, ideally they should be single or <3 cell clusters. The cells were diluted to 3,000 cells/mL of DLD-1 BRCA2−/− and 1,500 cells/mL of DLD-1 in Assay Medium and 100 μL added per well of transparent bottomed, black, tissue culture-treated 96-well plates (CoStar, No. 3904) Assay Ready Plates. The Assay Ready Plates contain a 10 point 10 μM to 0.51 nM dose range with three-fold dilutions in DMSO with a final volume of 100 nL. The plates were incubated at 37° C. with 5% C02 for 6 days. On day 6, 100 μL/well of Assay Medium was added to duplicate Assay Ready Plates. 90 μL of culture medium was removed from the cell plates and replenished with the Assay Media and compounds from the duplicate Assay Ready Plates using the Bravo. The plates were further incubated at 37° C. with 5% CO2. On day 7 the plates containing DLD-1 and Cell Titre Glo 3D (Promega G9683) were equilibrated to room temperature, then 60 μL of Cell Titre Glo 3D was added per well and incubated on a shaking platform for 30 min. Plates were read on the Envision measuring luminescence for 1 second per well. On day 12 the plates containing DLD-1 BRCA2−/− cells and Cell Titre Glo 3D (Promega G9683) were equilibrated to room temperature, then 60 μL Cell Titre Glo 3D added per well and incubated on a shaking platform for 30 min. Plates were read on the Envision measuring luminescence for 1 second per well. The data was exported into a suitable software package (such as Genedata) to perform curve fitting analysis. Inhibition of cell proliferation was expressed as an IC5o value and was determined by calculation of the concentration of compound that was required to give a 50% reduction of the average maximum Total Intensity signal.

DLD-1 BRCA2−/− cells = test: Homologous recombination synthetic lethal inhibition of proliferation, DLD-1 BRCA2-/- (Cell Titre Glo 3D); type: cell-based; settings: for IC50: Homo sapiens
Procedure, shortened: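 Proliferation of HR-deficient DLD-1 BRCA2−/− versus isogenic wild-type DLD-1 was measured by ATP luminescence (CellTiter-Glo 3D). Compound exposure lasted 12 or 7 days, respectively, with a fresh dose on day 6. IC50 was the concentration halving maximal signal.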

[1] = DLD-1, second proliferation column (c6), DLD-1 BRCA2 wt control, read-out: POLQ PD Prolif Lumin (converted)
[2] = DLD-1, DLD1 BRCA2 wt, mean, read-out: POLQ PD Prolif Lumin DLD1 mean pIC50 (converted)
[3] = DLD-1, 168 h, DLD-1 BRCA2 wt cells, 7 days, read-out: POLQ PD Prolif Lumin DLD1 mean pIC50 (converted)
[4] = DLD-1, first proliferation column (c5), taken as DLD-1 BRCA2-/-, read-out: POLQ PD Prolif Lumin (converted)
[5] = DLD-1, first proliferation column (c5), DLD-1 BRCA2-/-, read-out: POLQ PD Prolif Lumin (converted)
[6] = DLD-1, DLD-1 BRCA2 −/− cells, mean, read-out: POLQ PD Prolif Lumin BRCA2 −/− mean pIC50 (converted)

Cc1ccnc(Cn2c(-c3ccc(C4CCC(=O)N4)cc3Cl)nc3c(OC4(C)CC4)ncnc32)c1 (single isomer, unassigned) [Example T173, 5-(3-chloro-4-(6-(1-methylcyclopropoxy)-9-((4-methylpyridin-2-yl)methyl)-9H-purin-8-yl)phenyl)pyrrolidin-2-one]
IC50 (DLD-1 cells; [1]): > 10 µM

COc1ccc(F)cc1Cn1c(-c2cccc(OCC[C@@H](C)C(=O)O)c2Cl)nc2c(OC3(C)CC3)ncnc21 [Example U78, (R)-4-(2-chloro-3-(9-(5-fluoro-2-methoxybenzyl)-6-(1-methylcyclopropoxy)-9H-purin-8-yl)phenoxy)-2-methylbutanoic acid]
IC50 (DLD-1 cells; [2]): > 10 µM

Cn1cnnc1Cn1c(-c2ccc(OCCN3CCNCC3)cc2Cl)nc2c(OC3(C)CC3)ncnc21 [Example T150, 8-(2-chloro-4-(2-(piperazin-1-yl)ethoxy)phenyl)-9-((4-methyl-4H-1,2,4-triazol-3-yl)methyl)-6-(1-methylcyclopropoxy)-9H-purine]
IC50 (DLD-1 cells; [1]): > 10 µM

COc1ccc(Cl)cc1Cn1c(-c2ccc(OCCCOC(C)(C)C(=O)O)cc2Cl)nc2c(OC3(C)CC3)ncnc21 [Example U92, 2-(3-(3-chloro-4-(9-(5-chloro-2-methoxybenzyl)-6-(1-methylcyclopropoxy)-9H-purin-8-yl)phenoxy)propoxy)-2-methylpropanoic acid]
IC50 (DLD-1 cells; [2]): > 10 µM

Cc1cc(OC2CNC2)ncc1-c1nc2c(OC3(C)CC3)ncnc2n1Cc1ccccc1 [Example G17, 8-{6-[(azetidin-3-yl)oxy]-4-methylpyridin-3-yl}-9-benzyl-6-[(1-methylcyclopropyl)oxy]-9H-purine]
IC50 (DLD-1 cells; [3]): 7.94 µM

CC1(Oc2ncnc3c2nc(-c2ccc(OCCN4CCNCC4)cc2Cl)n3CCc2ccccn2)CC1 [Example J11, 8-(2-chloro-4-(2-(piperazin-1-yl)ethoxy)phenyl)-6-(1-methylcyclopropoxy)-9-(2-(pyridin-2-yl)ethyl)-9H-purine]
IC50 (DLD-1 cells; [3]): > 10 µM

COc1ccc(F)cc1Cn1c(-c2cccc(OCCCOCC(=O)O)c2Cl)nc2c(OC3(C)CC3)ncnc21 [Example U71, 2-(3-(2-chloro-3-(9-(5-fluoro-2-methoxybenzyl)-6-(1-methylcyclopropoxy)-9H-purin-8-yl)phenoxy)propoxy)acetic acid]
IC50 (DLD-1 cells; [2]): > 10 µM

CC1(Oc2ncnc3c2nc(-c2cccc(O[C@H]4CC[C@H](C(=O)O)CC4)c2Cl)n3Cc2cc(Cl)ccc2C#N)CC1 [Example U85, (1r,4r)-4-(2-chloro-3-(9-(5-chloro-2-cyanobenzyl)-6-(1-methylcyclopropoxy)-9H-purin-8-yl)phenoxy)cyclohexane-1-carboxylic acid]
POLQ PD Prolif Lumin DLD1 mean pIC50 (DLD-1 cells; DLD1 BRCA2 wt, mean): <5.0

Cc1ccnc(Cn2c(-c3ccc(OC4CCCNCC4)cc3Cl)nc3c(OC4(C)CC4)ncnc32)c1 (single isomer, unassigned) [Example T509, 8-(4-(azepan-4-yloxy)-2-chlorophenyl)-6-(1-methylcyclopropoxy)-9-((4-methylpyridin-2-yl)methyl)-9H-purine]
IC50 (DLD-1 cells; [1]): > 10 µM

Cc1ccnc(Cn2c(-c3ccc(O[C@@H]4CCN(C(N)=O)C4)cc3Cl)nc3c(OC4(C)CC4)ncnc32)c1 [Example T344, (R)-3-(3-chloro-4-(6-(1-methylcyclopropoxy)-9-((4-methylpyridin-2-yl)methyl)-9H-purin-8-yl)phenoxy)pyrrolidine-1-carboxamide]
IC50 (DLD-1 BRCA2−/− cells; [4]): 2 µM

CC1(Oc2ncnc3c2nc(-c2cccc(OCC(F)(F)CC(=O)O)c2Cl)n3Cc2cccc(Cl)c2)CC1 [Example U63, 4-(2-chloro-3-(9-(3-chlorobenzyl)-6-(1-methylcyclopropoxy)-9H-purin-8-yl)phenoxy)-3,3-difluorobutanoic acid]
IC50 (DLD-1 BRCA2−/− cells; DLD-1, DLD-1 BRCA2 −/−, mean, read-out: POLQ PD Prolif Lumin BRCA2 −/− mean pIC50 (converted)): 0.501 µM

CC[C@H](CO)NC(=O)c1ccc(-c2nc3c(OC4(C)CC4)ncnc3n2Cc2cc(C)ccn2)c(Cl)c1 [Example T361, (R)-3-chloro-N-(1-hydroxybutan-2-yl)-4-(6-(1-methylcyclopropoxy)-9-((4-methylpyridin-2-yl)methyl)-9H-purin-8-yl)benzamide]
IC50 (DLD-1 BRCA2−/− cells; [4]): 0.631 µM

Cc1ccnc(Cn2c(-c3ccc(CC(=O)N4CC5(CNC5)C4)cc3Cl)nc3c(OC4(C)CC4)ncnc32)c1 [Example T558, 2-(3-chloro-4-(6-(1-methylcyclopropoxy)-9-((4-methylpyridin-2-yl)methyl)-9H-purin-8-yl)phenyl)-1-(2,6-diazaspiro[3.3]heptan-2-yl)ethan-1-one]
IC50 (DLD-1 BRCA2−/− cells; [5]): > 10 µM

Cc1ccnc(Cn2c(-c3ccc(CC(=O)N4CC[C@@H](O)C4)cc3Cl)nc3c(OC4(C)CC4)ncnc32)c1 [Example T458, (R)-2-(3-chloro-4-(6-(1-methylcyclopropoxy)-9-((4-methylpyridin-2-yl)methyl)-9H-purin-8-yl)phenyl)-1-(3-hydroxypyrrolidin-1-yl)ethan-1-one]
IC50 (DLD-1 BRCA2−/− cells; DLD-1, proliferation, luminescence, taken as DLD-1 BRCA2-/-, read-out: POLQ PD Prolif Lumin (converted)): 0.631 µM

CC1(Oc2ncnc3c2nc(-c2cccc(OCCCc4nn[nH]n4)c2Cl)n3Cc2cccc(Cl)c2)CC1 [Example T163, 8-(3-(3-(2H-tetrazol-5-yl)propoxy)-2-chlorophenyl)-9-(3-chlorobenzyl)-6-(1-methylcyclopropoxy)-9H-purine]
IC50 (DLD-1 BRCA2−/− cells; [5]): 0.251 µM

Cc1ccnc(Cn2c(-c3ccc(CCO)cc3Cl)nc3c(OC4(C)CC4)ncnc32)c1 [Example T65, 2-(3-chloro-4-(6-(1-methylcyclopropoxy)-9-((4-methylpyridin-2-yl)methyl)-9H-purin-8-yl)phenyl)ethan-1-ol]
IC50 (DLD-1 BRCA2−/− cells; [6]): 0.251 µM

CC1(Oc2ncnc3c2nc(-c2ccc(OC[C@H]4C[C@H](C(=O)O)C4)cc2Cl)n3Cc2ccccc2C#N)CC1 [Example U27, (1r,3r)-3-((3-chloro-4-(9-(2-cyanobenzyl)-6-(1-methylcyclopropoxy)-9H-purin-8-yl)phenoxy)methyl)cyclobutane-1-carboxylic acid]
POLQ PD Prolif Lumin BRCA2 −/− mean pIC50 (DLD-1 BRCA2−/− cells; DLD-1 BRCA2 −/−, mean): 6.7

CNC(=O)Cc1ccc(-c2nc3c(OC4(C)CC4)ncnc3n2Cc2cc(C)ccn2)c(Cl)c1 [Example T113, 2-(3-chloro-4-(6-(1-methylcyclopropoxy)-9-((4-methylpyridin-2-yl)methyl)-9H-purin-8-yl)phenyl)-N-methylacetamide]
IC50 (DLD-1 BRCA2−/− cells; [5]): 0.316 µM

Cc1ccnc(Cn2c(-c3ccc(OCCNC(N)=O)cc3Cl)nc3c(OC4(C)CC4)ncnc32)c1 [Example T133, 1-(2-(3-chloro-4-(6-(1-methylcyclopropoxy)-9-((4-methylpyridin-2-yl)methyl)-9H-purin-8-yl)phenoxy)ethyl)urea]
IC50 (DLD-1 BRCA2−/− cells; [5]): 0.251 µM

Cc1ccnc(Cn2c(-c3ccc(N4CCNC(=O)C4)cc3Cl)nc3c(OC4(C)CC4)ncnc32)c1 [Example T201, 4-(3-chloro-4-(6-(1-methylcyclopropoxy)-9-((4-methylpyridin-2-yl)methyl)-9H-purin-8-yl)phenyl)piperazin-2-one]
IC50 (DLD-1 BRCA2−/− cells; [5]): 0.501 µM

Cc1ccnc(Cn2c(-c3ccc(C(=O)N4CCOCC4)cc3Cl)nc3c(OC4(C)CC4)ncnc32)c1 [Example T315, (3-chloro-4-(6-(1-methylcyclopropoxy)-9-((4-methylpyridin-2-yl)methyl)-9H-purin-8-yl)phenyl)(morpholino)methanone]
IC50 (DLD-1 BRCA2−/− cells; [4]): 1.58 µM

CC1(Oc2ncnc3c2nc(-c2ccc(CC(N)=O)cc2Cl)n3Cc2ccccc2C#N)CC1 [Example T82, 2-(3-chloro-4-(9-(2-cyanobenzyl)-6-(1-methylcyclopropoxy)-9H-purin-8-yl)phenyl)acetamide]
IC50 (DLD-1 BRCA2−/− cells; [6]): 0.316 µM
